Reference: paper PMC6356649, “Effect of Pentacyclic Guanidine Alkaloids from the Sponge Monanchora pulchra on Activity of α-Glycosidases from Marine Bacteria” (Marine Drugs, 2019)
pIC50: −log10 of the molar value.

How the values were obtained:
[1] = target: T1, α-PsGal (recombinant wild-type α-D-galactosidase, GH36) (Pseudoalteromonas sp. KMM 701, UniProt Q19AX0); test: p-nitrophenol release at […] nm; assay type: biochemical; settings: 0.05 M sodium phosphate, pH 7.0, 20 °C; Km only implied (3.32 mM stated as ~5 Km)
T1 construct: recombinant from pET-40b(+) in E. coli Rosetta (DE3); two identical subunits; catalytic Asp451 and Asp516
T1 sequence (Q19AX0 1-710): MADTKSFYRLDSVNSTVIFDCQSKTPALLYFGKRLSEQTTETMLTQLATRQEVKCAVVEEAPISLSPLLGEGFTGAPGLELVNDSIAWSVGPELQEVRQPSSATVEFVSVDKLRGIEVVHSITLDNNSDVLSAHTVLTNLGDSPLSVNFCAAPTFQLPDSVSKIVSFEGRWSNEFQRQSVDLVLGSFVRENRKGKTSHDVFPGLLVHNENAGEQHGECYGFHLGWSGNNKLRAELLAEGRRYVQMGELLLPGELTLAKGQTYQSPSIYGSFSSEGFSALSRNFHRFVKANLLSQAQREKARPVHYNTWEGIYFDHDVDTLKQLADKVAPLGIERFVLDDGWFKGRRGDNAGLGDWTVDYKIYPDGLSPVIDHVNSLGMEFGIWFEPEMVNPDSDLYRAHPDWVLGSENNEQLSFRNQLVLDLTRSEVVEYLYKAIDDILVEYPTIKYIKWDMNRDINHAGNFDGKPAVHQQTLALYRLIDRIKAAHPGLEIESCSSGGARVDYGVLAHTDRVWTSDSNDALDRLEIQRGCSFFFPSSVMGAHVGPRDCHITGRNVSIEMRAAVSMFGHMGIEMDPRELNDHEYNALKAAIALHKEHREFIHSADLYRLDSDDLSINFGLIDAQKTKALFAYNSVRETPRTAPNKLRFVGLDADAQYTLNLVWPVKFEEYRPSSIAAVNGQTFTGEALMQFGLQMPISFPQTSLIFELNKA

[2] = target: T1, α-PsGal (recombinant wild-type α-D-galactosidase, GH36); test: inhibition of pNP-α-Gal hydrolysis; assay type: biochemical; settings: competitive; reaction product; active site; pH 7.0, 20 °C; read-out: decreased the activity on 50%

pIC50 [2] | Structure (SMILES) | p-nitrophenol release at 400 nm [1]
– | O=[N+]([O-])c1ccc(O[C@H]2O[C@H](CO)[C@H](O)[C@H](O)[C@H]2O)cc1 [4-nitrophenyl-α-D-galactopyranoside] | p-nithrophenil galactopyranoside (pNP-α-Gal) for α-PsGal
3.15 | OC[C@H]1OC(O)[C@H](O)[C@@H](O)[C@H]1O (stereo partly drawn) [D-galactose] | –
